Experimental data reported in ChEMBL document CHEMBL3243998, “Conformation of 2,9-dimethyl-3'-hydroxy-5-phenyl-6,7-genzomorphan and its relation to other analgetics and enkephalin” (J Med Chem, 1978).

Columns and labels:
Mus musculus = test: Analgesic activity in sc dosed mouse assessed as inhibition of phenylquinone-induced writhing; format: functional; parameters: log(1/ED50): unit not given here
Opioid receptor = Opioid receptor (Rattus norvegicus, UniProt P33533+P34975+P33535); test: Displacement of [3H]naloxone from Sprague-Dawley rat cerebellum opioid receptor assessed as relative receptor affinity by scintillation counting; format: protein assay
[1] = Mus musculus, sc, read-out: ED50

| SMILES | log(1/ED50) (Mus musculus) | ED50 (Mus musculus; [1]) [mg/kg] | IC50 (Opioid receptor) [nM] | ED50 (Mus musculus) [mg/kg] |
| --- | --- | --- | --- | --- |
| C[C@H]1[C@H]2Cc3ccc(O)cc3[C@]1(c1ccccc1)CCN2C.Cl | 2.82 | 0.5 | 19 |  |
| CCOC(=O)C1(c2ccccc2)CCN(C)CC1.Cl [MEPERIDINE HYDROCHLORIDE] | 1.61 | 7 |  |  |
| C[C@H]1[C@H]2Cc3ccc(O)cc3[C@]1(c1ccccc1)CC[N+]2(C)C.[I-] |  |  | 320 |  |
| CN1CCC2(c3ccccc3)CC1Cc1ccccc12.O=C(O)C(O)C(O)C(=O)O (single isomer, unassigned; form 2) | 1.71 |  | 3000 | 8 |
| C[C@@H]1[C@@H]2Cc3ccc(O)cc3[C@@]1(c1ccccc1)CCN2C.Cl | 1.9 | 4.2 | 10000 |  |
| CN1CC[C@]23CCCC[C@H]2[C@H]1Cc1ccc(O)cc13.O.O=C(O)C(O)C(O)C(=O)O |  | 0.24 |  |  |
| CN1CCC2(c3ccccc3)CC1Cc1ccccc12.O=C(O)C(O)C(O)C(=O)O (single isomer, unassigned; form 1) | 1.88 | 5.5 | 600 |  |
